# Measured values from US6696484B2, “Method and compositions for regulation of 5-alpha reductase activity” (University of Chicago Office of Technology and Intellectual …, priority 1997, dated 2004).
# “And” between values parts separate entries of the source, which are not always exact repeats. Equal values may be shown once. Read-outs that look alike come from different tables or passages of the source.
# What was measured:
# hamster flank organ [1] = assay: Testosterone-stimulated growth of the pigmented macules of hamster flank organs; assay type: in vivo, Syrian golden hamsters; settings: for Pigmented macule area, androgen alone (control): 0.5 μg testosterone alone topically daily; for Pigmented macule area, androgen alone (control) / Inhibition (percent decrease in macule area vs androgen-treated macules) / Pigmented macule area: 18 days; for Pigmented macule area, androgen alone (control) / Pigmented macule area: mean±SEM;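 as to all read-outs here: prepubertal Syrian golden hamsters castrated at 4 weeks, ethanol vehicle on one flank organ, macule long and short axes gauged by caliper 1 day after final dose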
# [2] = target: T1, 5α-reductase type 1 isozyme (Homo sapiens, UniProt P18405); settings: read-out: Km for testosterone, type 1 isozyme; background statement; cited from earlier work
# T1 sequence (P18405 1-259): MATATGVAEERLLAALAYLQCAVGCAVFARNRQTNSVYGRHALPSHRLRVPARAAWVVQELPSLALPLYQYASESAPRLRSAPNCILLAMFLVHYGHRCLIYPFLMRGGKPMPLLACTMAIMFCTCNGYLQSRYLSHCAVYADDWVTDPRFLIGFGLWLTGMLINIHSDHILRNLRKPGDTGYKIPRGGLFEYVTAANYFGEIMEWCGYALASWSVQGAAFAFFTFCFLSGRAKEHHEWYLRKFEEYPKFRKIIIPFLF
# [3] = target: T2, 5α-reductase type 2 isozyme (Homo sapiens, UniProt P31213); settings: cited from earlier work
# T2 sequence (P31213 1-254): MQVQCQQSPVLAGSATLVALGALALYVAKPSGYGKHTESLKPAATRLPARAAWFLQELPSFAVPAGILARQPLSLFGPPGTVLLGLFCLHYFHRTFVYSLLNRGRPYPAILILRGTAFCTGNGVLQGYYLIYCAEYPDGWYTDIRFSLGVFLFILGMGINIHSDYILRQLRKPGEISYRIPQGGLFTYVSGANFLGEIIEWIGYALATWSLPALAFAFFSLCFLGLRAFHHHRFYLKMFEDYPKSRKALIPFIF
# 5α-reductase [4] = assay: Cell-free 5α-reductase assay, isozyme not given; assay type: biochemical, human; settings: isozyme not stated
# 5α-reductase [5] = assay: Whole-cell 5α-reductase assay, isozyme not given; assay type: cell-based, human; settings: isozyme not stated
# Description: Intact cells containing 5α-reductase, their microsomes, or nuclear preparations can also be used to screen 5α-reductase inhibitors.
# [6] = target: T3, type 2 human 5α-reductase (Homo sapiens, UniProt P31213); assay: Whole-cell assay of 5α-reductase, type 2; assay type: cell-based; parameters: expressed in transfected cells; host or cells: rat 1A cells infected with pMV7 retrovirus and selected with G418; intact cells for the whole-cell assay; settings: read-out: percent inhibition of 5α-reductase activity, whole-cell assay, Type 2; 100 μM compound
# T3 sequence (P31213 1-254): T2 sequence (P31213 1-254)
# hamster flank organ [7] = assay: DHT-stimulated growth of the pigmented macules of hamster flank organs; assay type: in vivo, Syrian golden hamsters; settings: 0.5 μg DHT + 1 mg compound topically daily, 18 days; for Pigmented macule area: mean±SEM
# Protocol: Prepubertal male Syrian golden hamsters, castrated at 4 weeks of age, were obtained from Harlan Sprague-Dawley Co. (Madison, Wis.). Bilateral orchiectomy was performed under anesthesia. The hamsters were housed individually in plastic cages and had free access to Purina rodent chow and water, and were maintained on a 12-h light/12-h dark cycle. Hamsters were used 1-2 weeks after castration and were divided into groups of 4-6 or 9-11 animals. Hair on the lower back of each animal was shaved weekly with an electric hair clipper to expose the flank organs. A treatment solution (5 μl with ethanol as vehicle) was applied topically to the flank organ once a day using a Pipetteman and a polypropylene disposable tip. The treatment solution contained either (a) ethanol alone, (b) an androgen (testosterone or DHT), (c) a test compound, or (d) a combination of an androgen and a test compound. For each hamster, one flank organ was treated while the other organ was not treated. The surface of the flank organ was wiped with an alcohol pad to remove residual compound before each treatment. At the end of each experiment (18 days), animals were killed by CO2 asphyxiation or an intraperitoneal injection of […]. Flank organs from both the treated and untreated sides were examined 1 day after the last treatment by the methods described below. The body weight of each animal was recorded before and after treatment. Experiments were repeated at least twice to assure reproducibility. The “Guide for the care and use of laboratory animals” (NIH publication no. 85-28, revised 1988) and the regulations of the U.S. Department of Agriculture were followed throughout the experiments.
# In this study, the growth of the flank organ was determined by measuring the length of the long axis and the short axis of the pigmented spot (pigmented macule) with a caliper with a digital display (Digimatic; Mitutoyo Corporation, Japan). The surface area (in millimeters squared) of the spot was calculated as the product of the long axis and the short axis (Gomez and Frost 1975). The areas of the pigmented spots after treatment with ethanol alone or with test compound (in ethanol) alone were less than 10% of the areas of the pigmented spots after treatment with testosterone alone. These values were deducted from the experimental values and are compared in Tables 8-10. For each experiment, the means and standard error of the means (SEM) of the areas of the untreated and treated macules were computed separately for each treatment group. Within each experiment, an overall F-test (one way ANOVA) was used to test the null hypothesis that the mean sizes of the treated macules were the same in all groups, and Dunnett's multiple range test was used to examine differences between the treatment groups (i.e., green tea catechin+androgen, fatty acid+androgen, EGC derivative+androgen, or fatty acid derivative+androgen) and the control group (androgen treatment only). The Mann-Whitney test was used to examine differences between DHT-treated and the DHT and EGCG-treated groups. P-values <0.05 were taken as indicating statistical significance in all tests (Hochberg and Tamhane 1987).
# Each group comprised four to six castrated male hamsters. At the end of the treatment period, the areas of the pigmented macules were determined and are presented as means±SEM in Table 8.
# Each group comprised four to six castrated male hamsters. At the end of the treatment period, the areas of the pigmented macules were determined and are expressed as means±SEM as shown in Table 10.
# 5α-reductase [8] = assay: In vitro enzyme assay of 5α-reductase referred to in the discussion; assay type: biochemical; settings: Hiipakka and Liao, unpublished results
# 5α-reductase [9] = settings: Liao and Hiipakka 1995, cited from earlier work; for activity against 5α-reductase, in vitro enzyme assay: at 200 μM; for IC50: read-out: IC50, 5α-reductase, in vitro enzyme assay
# LNCaP 104-R2 tumors = assay: Growth of LNCaP 104-R2 tumors in castrated male nude mice; assay type: in vivo, BALB/c athymic (nude) mice; settings: finasteride (2.5 mg) pellets at 7th week in mice with TP since 4th week, from 84±15 (SE) mm^3
# LNCaP 104-S tumors = assay: Growth of LNCaP 104-S tumors in nude mice; assay type: in vivo, BALB/c athymic (nude) mice; settings: finasteride treatment, normal nude mice, within 4 weeks
# MCF-7 tumors = assay: Growth of MCF-7 tumors in female nude mice; assay type: in vivo, BALB/c athymic (nude) mice
# [10] = Stability (half-life, oxidation or hydrolysis) in culture medium, buffers and solutions; assay type: physicochemical
# Description: These green tea catechins had little inhibitory activity against 5α-reductase in whole cells. The lack of activity in whole cells may be due to an inability of these catechins to cross the cell membrane or to enzymatic or non-enzymatic changes in the structure of these catechins in assays using whole-cell cultures.
# Active 5α-reductase inhibitors shown in Tables 1-7 are polyphenols or their derivatives and are easily oxidized or hydrolyzed within several hours to several days, especially in the presence of air or oxygen and at a pH above 7.0. […] More than 80% of the oxidation of hydrolysis can be prevented by the addition of an inorganic acid, such as hydrochloric acid, sulfuric acid, or phosphoric acid, or an organic acid, such as citric acid or acetic acid.
# [11] = target: T4, type 1 human 5α-reductase (Homo sapiens, UniProt P18405); assay: Cell-free enzymatic assay of 5α-reductase (testosterone to DHT), type 1
# T4 sequence (P18405 1-259): T1 sequence (P18405 1-259)
# [12] = target: T3, type 2 human 5α-reductase; assay: Cell-free enzymatic assay of 5α-reductase (testosterone to DHT), type 2; assay type: biochemical; parameters: expressed in transfected cells; host or cells: rat 1A cells infected with pMV7 retrovirus and selected with G418; microsomes for the cell-free assay
# [13] = 0.5 μg testosterone + 1 mg compound topically daily
# [14] = 0.5 μg testosterone + 1 mg compound topically daily, castrated male hamsters
# [15] = 0.5 μg testosterone + 2 mg compound topically daily
# [16] = cell-free assay, double-reciprocal plots
compound,measurement,setting,value
"C[C@]12CC[C@H]3[C@@H](CCC4=CC(=O)CC[C@@]43C)[C@@H]1CC[C@@H]2O [T, testosterone, reference compound]","Pigmented macule area, androgen alone (control)",hamster flank organ [1],13.83 ± 1.43 mm^2 and 17.40 ± 1.93 mm^2 and 18.65 ± 0.69 mm^2
same,"Pigmented macule area, androgen alone (control)",hamster flank organ [1]; listed as testosterone,15-20 mm^2
same,stimulation of flank organ growth relative to the maximum stimulation,hamster flank organ [1]; 0.5 μg testosterone per flank organ per day,50-70%
same,Km,[2],> 1 µM
same,Km,"[3]; read-out: Km for testosterone, type 2 isozyme, background statement",< 0.01 µM
"Oc1ccccc1O [Catechol, 1,2-dihydroxybenzene]",inhibitory activity in the cell-free assay,5α-reductase [4],weak inhibitory activity
same,inhibitory activity in the whole-cell assay,5α-reductase [5],weak inhibitory activity
CCCCC/C=C\C/C=C\C/C=C\CCCCC(=O)O[C@H]1CC[C@@]2(C)C(=CC[C@H]3[C@@H]4CC[C@H]([C@H](C)CCCC(C)C)[C@@]4(C)CC[C@@H]32)C1 [cholesterol ester of γ-linolenic acid],IC50,5α-reductase [4],> 100 µM
same,IC50,5α-reductase [5],> 100 µM
same,inhibitory activity in the whole-cell assay,5α-reductase [5],little activity
CCCCC/C=C\C/C=C\C/C=C\CCCCC(=O)OC [Methyl ester of γ-linolenic acid],IC50,5α-reductase [4],> 100 µM
same,IC50,5α-reductase [5],> 100 µM
same,inhibitory activity in the whole-cell assay,5α-reductase [5],little activity
"Oc1cccc(O)c1O [Pyrogallol, 1,2,3-trihydroxybenzene]",inhibitory activity in the cell-free assay,5α-reductase [4],weak inhibitory activity
same,inhibitory activity in the whole-cell assay,5α-reductase [5],weak inhibitory activity
same,inhibition at 100 µM,[6],15%
"O=C(O)c1cc(O)c(O)c(O)c1 [gallic acid, 3,4,5-trihydroxybenzoic acid]",inhibitory activity in the cell-free assay,5α-reductase [4],weak inhibitory activity
same,inhibitory activity in the whole-cell assay,5α-reductase [5],weak inhibitory activity
O=C1c2ccccc2C(=O)c2c1ccc(O)c2O [Alizarin],Inhibition (percent decrease in macule area vs androgen-treated macules),hamster flank organ [1]; [13],87%
same,Pigmented macule area,hamster flank organ [1]; [14],2.40 ± 0.47 mm^2
same,Inhibition (percent decrease in macule area vs androgen-treated macules),hamster flank organ [7],27%
same,Pigmented macule area,hamster flank organ [7],10.00 ± 0.43 mm^2
same,IC50,5α-reductase [8],5 to 10 µM
"Oc1cc(O)c2c(c1)O[C@H](c1cc(O)c(O)c(O)c1)[C@H](O)C2 [EGC, epigallocatechin]",Pigmented macule area,hamster flank organ [1]; [14],10.75 ± 0.87 mm^2 and 5.50 ± 0.65 mm^2
same,"activity against 5α-reductase, in vitro enzyme assay",5α-reductase [9],not active
CC(C)(C)NC(=O)[C@H]1CC[C@H]2[C@@H]3CC[C@H]4NC(=O)C=C[C@]4(C)[C@H]3CC[C@]12C [Finasteride],LNCaP 104-R2 tumor size within 4 weeks after finasteride implantation,LNCaP 104-R2 tumors,593±144 mm^3
same,reduction of LNCaP 104-S tumor size,LNCaP 104-S tumors,45%
same,effect on growth of MCF-7 tumors,MCF-7 tumors,did not affect
same,affinity for isozyme 2 relative to isozyme 1,"[3]; competitive inhibitor, Russell and Wilson, 1994",30 fold
"O=C(O[C@@H]1Cc2c(O)cc(O)cc2O[C@@H]1c1cc(O)c(O)c(O)c1)c1cc(O)c(O)c(O)c1 [EGCG, epigallocatechin gallate]",half-life in culture medium,"[10]; culture medium used for whole-cell assays (pH 7.5), mean±SEM, N=3",9.5 ± 0.5 min
same,"difference in stability, phosphate buffer vs culture medium",[10]; pH 7.0 vs pH 7.5,8 fold
same,half-life in phosphate buffered saline,[10]; pH 7.5,21.2 ± 2.0 min
same,half-life in phosphate buffer,"[10]; phosphate buffer used for cell-free assays (pH 7.0), mean±SEM, N=3",74.7 ± 6.4 min
same,Inhibition (percent decrease in macule area vs androgen-treated macules),hamster flank organ [1]; [13],40% and 64%
same,Pigmented macule area,hamster flank organ [1]; [14],8.25 ± 1.43 mm^2 and 6.25 ± 0.82 mm^2
same,Inhibition (percent decrease in macule area vs androgen-treated macules),hamster flank organ [1]; [15],60%
same,Pigmented macule area,hamster flank organ [1]; [15],5.62 ± 0.75 mm^2
same,Inhibition (percent decrease in macule area vs androgen-treated macules),hamster flank organ [7],97%
same,Pigmented macule area,hamster flank organ [7],0.50 ± 0.26 mm^2
same,IC50,5α-reductase [9],10 to 20 µM
same,reversibility of inhibition after pelleting and resuspending microsomes,[11]; 100 μM EGCG,could not be reversed
same,mode of inhibition with respect to the substrate NADPH,[11]; [16],competitive inhibitor
same,mode of inhibition with respect to the substrate testosterone,[11]; [16],non-competitive inhibitor
"O=C(O[C@@H]1Cc2c(O)cc(O)cc2O[C@@H]1c1ccc(O)c(O)c1)c1cc(O)c(O)c(O)c1 [ECG, epicatechin gallate]",Inhibition (percent decrease in macule area vs androgen-treated macules),hamster flank organ [1]; [13],59%
same,Pigmented macule area,hamster flank organ [1]; [14],5.75 ± 0.57 mm^2
same,IC50,5α-reductase [9],10 to 20 µM
same,IC50,[12],69 µM
"Oc1cc(O)c2c(c1)O[C@H](c1ccc(O)c(O)c1)[C@H](O)C2 [EC, epicatechin]",Inhibition (percent decrease in macule area vs androgen-treated macules),hamster flank organ [1]; [13],37%
same,Pigmented macule area,hamster flank organ [1]; [14],8.67 ± 1.08 mm^2
same,"activity against 5α-reductase, in vitro enzyme assay",5α-reductase [9],not active
